Data on 32 compounds can be found in patent publication US8178690B2, “Compounds and methods for inhibiting the interaction of BCL proteins with binding partners” (Infinity Pharmaceuticals, Inc., priority 2006, dated 2012).

Experiment [1] has as its target Bcl-2 (Homo sapiens, UniProt P10415). Briefly: Bcl-2 binding affinity analysis (fluorescence polarization binding assay). The conditions noted are these: read-out: BcI2 (Ki, Bcl-2 binding affinity). From the text: (§1) Bcl-2 and Bcl-xL binding may be determined using a variety of known methods. One such assay is a sensitive and quantitative in vitro binding assay using fluorescence polarization (FP) described by Wang, J.-L.; Zhang, Z-J.; Choksi, S.; Sjam. S.; Lu, Z.; Croce, C. M.; Alnemri, E. S.; Komgold, R.; Huang, Z. Cell permeable Bcl-2 binding peptides: a chemical approach to apoptosis induction in tumor cells. Cancer Res. 2000, 60, 1498-1502).
(§2) Bcl-2 and Bcl-xL binding affinity analysis data is presented below for various compounds of the invention.

In experiment [2] the target is Bcl-xL (Homo sapiens, UniProt Q07817). Briefly: Bcl-xL binding affinity analysis (fluorescence polarization binding assay). The following applies: read-out: BcI-XI (Ki, Bcl-xL binding affinity).
Description: as §1, §2

Each structure is given as a SMILES string. pKi: −log10 of the molar value.

Bcl-xL, sequence (Q07817 whole entry): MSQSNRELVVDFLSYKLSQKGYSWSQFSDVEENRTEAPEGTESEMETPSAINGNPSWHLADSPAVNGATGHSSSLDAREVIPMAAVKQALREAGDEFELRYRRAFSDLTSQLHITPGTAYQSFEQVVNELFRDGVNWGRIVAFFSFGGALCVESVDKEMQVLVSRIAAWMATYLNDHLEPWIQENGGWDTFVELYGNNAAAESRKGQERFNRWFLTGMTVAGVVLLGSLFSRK
Bcl-2, sequence (P10415 whole entry): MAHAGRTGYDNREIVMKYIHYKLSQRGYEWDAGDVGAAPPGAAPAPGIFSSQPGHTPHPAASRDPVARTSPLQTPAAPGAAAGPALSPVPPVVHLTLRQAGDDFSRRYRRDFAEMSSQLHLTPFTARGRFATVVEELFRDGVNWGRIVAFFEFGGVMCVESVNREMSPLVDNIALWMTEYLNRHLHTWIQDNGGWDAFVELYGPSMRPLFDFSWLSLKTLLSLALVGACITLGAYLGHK

In the case of `CNC(=O)c1cc(-c2cccc(CN3O[C@@H](CNC(C)=O)[C@@H]([C@H](C)O)[C@H]3C(=O)N[C@H]3C[C@H]4C[C@@H]([C@@H]3C)C4(C)C)c2OC)cc(N(C)C)c1` [Compound 77], the pKi is 8.05 to 8.30 in experiment [1] and 5.30 to 6.00 in experiment [2].
On to `CNC(=O)c1cc(-c2cccc(CN3O[C@@H](CNC(=O)CCC(=O)OC)[C@@H]([C@H](C)O)[C@H]3C(=O)N[C@H]3C[C@H]4C[C@@H]([C@@H]3C)C4(C)C)c2OC)cc(N(C)C)c1` [Compound 78], for which the pKi in experiment [1] is under 8.05; in experiment [2], 5.00 to 5.30.
In the same order, the values of `CNC(=O)c1cc(-c2cccc(CN3O[C@@H](CNC(=O)Nc4ccccc4)[C@@H]([C@H](C)O)[C@H]3C(=O)N[C@H]3C[C@H]4C[C@@H]([C@@H]3C)C4(C)C)c2OC)cc(N(C)C)c1` [Compound 79] are under 8.05 and 5.00 to 5.30.
Consider `COc1c(CN2O[C@@H](CN(C)C)[C@@H]([C@H](C)O)[C@H]2C(=O)N[C@H]2C[C@H]3C[C@@H]([C@@H]2C)C3(C)C)cccc1-c1cc(C(=O)NCCc2ccccc2)cc(N(C)C)c1` [Compound 80], for which the pKi in experiment [1] is 8.05 to 8.30; in experiment [2] it was 5.00 to 5.30.
As for `CNC(=O)c1cc(-c2cccc(CN3O[C@@H](CNCc4ccc(C(=O)O)cc4)[C@@H]([C@H](C)O)[C@H]3C(=O)N[C@H]3C[C@H]4C[C@@H]([C@@H]3C)C4(C)C)c2OC)cc(N(C)C)c1` [Compound 81], the negative logarithm of the Ki (pKi) in experiment [1] is under 8.05; in experiment [2] it was under 5.00.
In the same order, the values of `CNC(=O)c1cc(-c2cccc(CN3O[C@@H](CNCc4ccncc4)[C@@H]([C@H](C)O)[C@H]3C(=O)N[C@H]3C[C@H]4C[C@@H]([C@@H]3C)C4(C)C)c2OC)cc(N(C)C)c1` [Compound 82] are under 8.05 and under 5.00.
For `CNC(=O)c1cc(-c2cccc(CN3O[C@@H](CNCc4ccccn4)[C@@H]([C@H](C)O)[C@H]3C(=O)N[C@H]3C[C@H]4C[C@@H]([C@@H]3C)C4(C)C)c2OC)cc(N(C)C)c1` [Compound 83], in that order: under 8.05 and under 5.00.
In the same order, the values of `CNC(=O)c1cc(-c2cccc(CN3O[C@@H](CNCc4cccc(C(=O)O)c4)[C@@H]([C@H](C)O)[C@H]3C(=O)N[C@H]3C[C@H]4C[C@@H]([C@@H]3C)C4(C)C)c2OC)cc(N(C)C)c1` [Compound 84] are under 8.05 and under 5.00.
Turning to `CNC(=O)c1cc(-c2cccc(CN3O[C@@H](CNCc4ccccc4)[C@@H]([C@H](C)O)[C@H]3C(=O)N[C@H]3C[C@H]4C[C@@H]([C@@H]3C)C4(C)C)c2OC)cc(N(C)C)c1` [Compound 85], the pKi in experiment [1] is under 8.05; in experiment [2] it was 5.00 to 5.30.
For the compound `COc1c(CN2O[C@@H](CN=C(N(C)C)N(C)C)[C@@H]([C@H](C)O)[C@H]2C(=O)N[C@H]2C[C@H]3C[C@@H]([C@@H]2C)C3(C)C)cccc1-c1cc(C(=O)NCCc2ccccc2)cc(N(C)C)c1` [Compound 86], the results for the pKi in experiment [1] and in experiment [2] were under 8.05 and under 5.00, respectively.
In the case of `CNC(=O)c1cc(-c2cccc(CN3O[C@@H](CN)[C@@H]([C@H](C)OC(=O)N(C)C)[C@H]3C(=O)N[C@H]3C[C@H]4C[C@@H]([C@@H]3C)C4(C)C)c2OC)cc(N(C)C)c1` [Compound 87], the values for the pKi in experiment [1] and in experiment [2] were under 8.05 and under 5.00, respectively.
For the compound `CNC(=O)c1cc(-c2cccc(CN3O[C@@H](CN)[C@@H]([C@H](C)OC(=O)NCCc4ccccc4)[C@H]3C(=O)N[C@H]3C[C@H]4C[C@@H]([C@@H]3C)C4(C)C)c2OC)cc(N(C)C)c1` [Compound 91], the negative logarithm of the Ki (pKi) in experiment [1] is under 8.05; in experiment [2], under 5.00.
For the compound `CNC(=O)c1cc(-c2cccc(CN3O[C@@H](CN)[C@@H]([C@H](C)OC(=O)NCCN(C)C)[C@H]3C(=O)N[C@H]3C[C@H]4C[C@@H]([C@@H]3C)C4(C)C)c2OC)cc(N(C)C)c1` [Compound 92], the pKi in experiment [1] is under 8.05; in experiment [2] it was under 5.00.
In the same order, the values of `CNC(=O)O[C@@H](C)[C@@H]1[C@H](CN)ON(Cc2cccc(-c3cc(C(=O)NC)cc(N(C)C)c3)c2OC)[C@@H]1C(=O)N[C@H]1C[C@H]2C[C@@H]([C@@H]1C)C2(C)C` [Compound 93] are under 8.05 and under 5.00.
In the same order, the values of `CCNC[C@@H]1ON(Cc2cccc(-c3cc(C(=O)NC)cc(N(C)C)c3)c2OC)[C@H](C(=O)N[C@H]2C[C@H]3C[C@@H]([C@@H]2C)C3(C)C)[C@@H]1[C@H](C)O` [Compound 94] are 8.30 to 9.00 and under 5.00.
`CNC(=O)c1cc(-c2cccc(CN3O[C@@H](CNCC(C)C)[C@@H]([C@H](C)O)[C@H]3C(=O)N[C@H]3C[C@H]4C[C@@H]([C@@H]3C)C4(C)C)c2OC)cc(N(C)C)c1` [Compound 95]: the pKi in experiment [1] is 8.05 to 8.30; in experiment [2], 5.00 to 5.30.
In the same order, the values of `CNC(=O)c1cc(-c2cccc(CN3O[C@@H](CNCC4CC4)[C@@H]([C@H](C)O)[C@H]3C(=O)N[C@H]3C[C@H]4C[C@@H]([C@@H]3C)C4(C)C)c2OC)cc(N(C)C)c1` [Compound 96] are 8.05 to 8.30 and 5.00 to 5.30.
On to `CNC(=O)c1cc(-c2cccc(CN3O[C@@H](CNC(C)C)[C@@H]([C@H](C)O)[C@H]3C(=O)N[C@H]3C[C@H]4C[C@@H]([C@@H]3C)C4(C)C)c2OC)cc(N(C)C)c1` [Compound 97], for which the pKi in experiment [1] was under 8.05; in experiment [2], under 5.00.
Take `CNC(=O)c1cc(-c2cccc(CN3O[C@@H](CN(CC(C)C)CC(C)C)[C@@H]([C@H](C)O)[C@H]3C(=O)N[C@H]3C[C@H]4C[C@@H]([C@@H]3C)C4(C)C)c2OC)cc(N(C)C)c1` [Compound 98]: the pKi in experiment [1] is under 8.05; in experiment [2], 5.00 to 5.30.
With `CNC(=O)c1cc(-c2cccc(CN3O[C@@H](CN(C)C)[C@@H]([C@H](C)O)[C@H]3C(=O)N[C@H]3C[C@H]4C[C@@H]([C@@H]3C)C4(C)C)c2OC)cc(N(C)C)c1` [Compound 99], the pKi is under 8.05 in experiment [1] and under 5.00 in experiment [2].
On to `C[C@@H]1[C@@H](NC(=O)[C@@H]2[C@H]([C@H](C)O)[C@H](CO)ON2Cc2cccc(-c3cc(C(=O)N[C@@H](Cc4ccccc4)CN(C)C)cc(N(C)C)c3)c2OCCN(C)C)C[C@H]2C[C@@H]1C2(C)C` [Compound 100], for which the pKi in experiment [1] was over 9.00; in experiment [2] it was 5.30 to 6.00.
For the compound `COc1c(CN2O[C@@H](CO)[C@@H]([C@H](C)O)[C@H]2C(=O)N[C@H]2C[C@H]3C[C@@H]([C@@H]2C)C3(C)C)cccc1-c1cc(C(=O)N[C@H](Cc2ccccc2)CN(C)C)cc(N(C)C)c1` [Compound 113], the negative-log Ki (pKi) was over 9.00 in experiment [1] and over 6.00 in experiment [2].
On to `COc1c(CN2O[C@@H](CNC(=O)CCC(=O)O)[C@@H]([C@H](C)O)[C@H]2C(=O)N[C@H]2C[C@H]3C[C@@H]([C@@H]2C)C3(C)C)cccc1-c1cc(C(=O)N[C@H](CN(C)C)CC(C)(C)C)cc(N(C)C)c1` [Compound 114], for which the pKi in experiment [1] was over 9.00; in experiment [2] it was over 6.00.
Regarding `COc1c(CN2O[C@@H](CNC(=O)CCN(C)C)[C@@H]([C@H](C)O)[C@H]2C(=O)N[C@H]2C[C@H]3C[C@@H]([C@@H]2C)C3(C)C)cccc1-c1cc(C(=O)N[C@H](CN(C)C)CC(C)(C)C)cc(N(C)C)c1` [Compound 115], the pKi was over 9.00 in experiment [1] and over 6.00 in experiment [2].
For `COc1c(CN2O[C@@H](CO)[C@@H]([C@H](C)O)[C@H]2C(=O)N[C@H]2C[C@H]3C[C@@H]([C@@H]2C)C3(C)C)cccc1-c1cc(C(=O)NCCc2ccccc2)cc(N(C)C)c1` [Compound 126], in that order: over 9.00 and over 6.00.
On to `COc1c(-c2cc(C(=O)N[C@@H](Cc3ccccc3)CN(C)C)cc(N(C)C)c2)ccc(F)c1CN1O[C@@H](CN)[C@@H]([C@H](C)O)[C@H]1C(=O)N[C@H]1C[C@H]2C[C@@H]([C@@H]1C)C2(C)C` [Compound 127], for which the pKi was over 9.00 in experiment [1] and over 6.00 in experiment [2].
Turning to `COc1c(CN2O[C@@H](CO)[C@@H]([C@H](C)O)[C@H]2C(=O)N[C@H]2C[C@H]3C[C@@H]([C@@H]2C)C3(C)C)cccc1-c1cc(C(=O)N[C@H](CN(C)C)[C@H](O)c2ccccc2)cc(N(C)C)c1` [Compound 136], the pKi in experiment [1] is over 9.00; in experiment [2] it was over 6.00.
For `COc1c(-c2cc(C(=O)N[C@H](CN(C)C)[C@H](O)c3ccccc3)cc(N(C)C)c2)ccc(F)c1CN1O[C@@H](CO)[C@@H]([C@H](C)O)[C@H]1C(=O)N[C@H]1C[C@H]2C[C@@H]([C@@H]1C)C2(C)C` [Compound 143], in that order: over 9.00 and over 6.00.
Turning to `COc1c(CN2O[C@@H](CO)[C@@H]([C@H](C)O)[C@H]2C(=O)N[C@H]2C[C@H]3C[C@@H]([C@@H]2C)C3(C)C)cccc1-c1cc(C(=O)N[C@H](CN(C)C)[C@@H](NS(C)(=O)=O)c2ccccc2)cc(N(C)C)c1` [Compound 144], the negative logarithm of the Ki (pKi) was over 9.00 in experiment [1] and over 6.00 in experiment [2].
In the same order, the values of `COc1c(-c2cc(C(=O)N[C@H](CN(C)C)[C@@H](NS(C)(=O)=O)c3ccccc3)cc(N(C)C)c2)ccc(F)c1CN1O[C@@H](CO)[C@@H]([C@H](C)O)[C@H]1C(=O)N[C@H]1C[C@H]2C[C@@H]([C@@H]1C)C2(C)C` [Compound 151] are over 9.00 and over 6.00.
For `COc1c(CN2O[C@@H](CO)[C@@H]([C@H](C)O)[C@H]2C(=O)N[C@H]2C[C@H]3C[C@@H]([C@@H]2C)C3(C)C)cccc1-c1cc(C(=O)N[C@H](CN(C)C)[C@H](OC)c2ccccc2)cc(N(C)C)c1` [Compound 152], the pKi was over 9.00 in experiment [1] and over 6.00 in experiment [2].
In the same order, the values of `COc1c(CN2O[C@@H](CO)[C@@H]([C@H](C)O)[C@H]2C(=O)N[C@H]2C[C@H]3C[C@@H]([C@@H]2C)C3(C)C)cccc1-c1cc(C(=O)N[C@H](CN2CCCC2)[C@H](O)c2ccccc2)cc(N(C)C)c1` [Compound 160] are over 9.00 and over 6.00.
